{"source": "paper PMC3174152", "about": "“Pseudomonas aeruginosa 4-Amino-4-Deoxychorismate Lyase: Spatial Conservation of an Active Site Tyrosine and Classification of Two Types of Enzyme” (PLoS ONE, 2011)", "molecular_target": "T1, PaPabC (Pseudomonas aeruginosa, UniProt Q9HZN6)", "T1 construct": "gene pabC; full length (271 residues), N-terminal His6 tag with TEV site kept (not cleaved), modified pET15b, E. coli BL21(DE3) Gold; homodimer, about 50 kDa", "T1 sequence (Q9HZN6 1-271)": "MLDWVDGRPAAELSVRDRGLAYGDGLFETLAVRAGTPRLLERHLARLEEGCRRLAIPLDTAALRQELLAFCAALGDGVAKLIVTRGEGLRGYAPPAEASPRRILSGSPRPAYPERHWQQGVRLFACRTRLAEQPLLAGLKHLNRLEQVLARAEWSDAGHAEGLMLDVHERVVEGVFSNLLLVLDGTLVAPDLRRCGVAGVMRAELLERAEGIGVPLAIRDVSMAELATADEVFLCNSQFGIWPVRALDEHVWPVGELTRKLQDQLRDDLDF", "experiment": "X-ray crystal structure ([…] Å), omit map", "format": "binding", "details": "covalent, Schiff base with Lys140; Tyr92 of partner subunit contacts PLP O3; crystallised with 0.1 mM PLP and 10 mM PABA, pH 6.5"}
{"molecule": "Cc1ncc(COP(=O)(O)O)c(C=O)c1O", "note": "[PLP]", "values": [{"measurement": "X-ray crystal structure (1.75 Å), omit map", "result": "The presence of the PLP cofactor covalently bound to Lys140 was confirmed"}]}
